Measured values: PMC6365201 (Organic & biomolecular chemistry, 2019)

Target: FrbG (Streptomyces rubellomurinus, UniProt Q0ZQ42, H221A)
Assay: NADPH oxidation at […] nm
Format: biochemical
Conditions: 500 μM substrate; 200 μM NADPH; 5 μM enzyme; 50 mM HEPES

Chain of FrbG (Q0ZQ42 whole entry H221A): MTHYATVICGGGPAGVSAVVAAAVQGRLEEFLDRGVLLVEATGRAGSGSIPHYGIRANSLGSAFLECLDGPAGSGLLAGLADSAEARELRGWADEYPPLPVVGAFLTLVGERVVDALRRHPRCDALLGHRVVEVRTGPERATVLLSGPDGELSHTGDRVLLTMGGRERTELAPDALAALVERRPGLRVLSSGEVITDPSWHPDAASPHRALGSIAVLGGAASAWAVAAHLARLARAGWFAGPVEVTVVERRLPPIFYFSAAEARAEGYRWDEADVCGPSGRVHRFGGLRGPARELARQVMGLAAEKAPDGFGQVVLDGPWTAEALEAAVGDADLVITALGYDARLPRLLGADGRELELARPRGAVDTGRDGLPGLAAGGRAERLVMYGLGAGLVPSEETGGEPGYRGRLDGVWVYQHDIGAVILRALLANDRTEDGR

## NCCCP(=O)(O)OP(=O)(O)OC[C@H]1O[C@@H](n2ccc(N)nc2=O)[C@H](O)[C@@H]1O [compound 4, CMP-5’-3APn]
  NADPH oxidation at 340 nm: FrbG-H221A had significantly higher rates for both NADPH oxidation and substrate hydroxylation
